This is an account of results in patent US20110152093A1, “Herbicidal compositions comprising flufenacet” (Bayer CropScience AG, priority 2009, published 2011).

Type in all cases: in vivo
In test [1] the test system is HORVS (Hordeum vulgare, summer barley). The experiment in a line: Selective pre-emergence action (crop compatibility), greenhouse trial, test method 3. To be noted: PE application; g of AS/ha: (A) 90, (B) 1200, (C) 140, (A)+(B)+(C) 90 + 1200 + 140. Here is the method: (§1) In the standard design of the test, seeds of various broad-leaved weed and weed grass biotypes (origins) were sown in a 8-13 cm diameter pot filled with natural soil of a standard field soil (loamy silt; non-sterile) and covered with a covering soil layer of about 1 cm. The pots were then cultivated in a greenhouse (12-16 h of light, temperature day 20-22° C., night 15-18° C.) until the time of application. The pots were treated on a laboratory track sprayer with spray liquors comprising the compositions according to the invention, mixtures of the prior art or components used individually. Application of the active compounds or active compound combinations formulated as WG, WP, EC or otherwise was carried out at the appropriate growth stages of the plants. The application rate for the spray application was 100-600 l of water/ha. After the treatment, the plants were returned to the greenhouses.
(§2) About 3 weeks after the application, the soil action or/and foliar action was assessed visually according to a scale of 0-100% in comparison to an untreated comparative group: 0%=no noticeable effect compared to the untreated comparative group; 100%=full effect compared to the untreated comparative group. […]

The test system of test [2] is AVEFA (Avena fatua). The experiment in a line: PE action at different soil pH values, test method 10. To be noted: PE application, g of AS/ha: (A) 90, (B) 1200, (C) 140, (A)+(B)+(C) 90 + 1200 + 140. Here is the method: as §1
(§3) About 3 weeks after the application, the soil action or/and foliar action was assessed visually according to a scale of 0-100% in comparison to an untreated comparative group: 0%=no noticeable effect compared to the untreated comparative group; 100%=full effect compared to the untreated comparative group.

In test [3] the test system is HORVS (Hordeum vulgare, summer barley). Description: Action under various soil conditions (soil types), test method 7, crop compatibility. As to conditions: g of AS/ha: (A) 90, (B) 1200, (C) 140, (A)+(B)+(C) 90 + 1200 + 140. Here is the method: as §1, §3
(notes: the term “seeds” also includes vegetative propagation forms such as, for example, rhizome pieces; abbreviations used: h light=hours of illumination, g of AS/ha=gram of active substance per hectare, l/ha=liter per hectare, S=sensitive, R=resistant) • 1. Pre-emergence action against weeds: seeds of various broad-leaved weed and weed grass biotypes (origins) were sown in a 8-13 cm diameter pot filled with natural soil of a standard field soil (loamy silt; non-sterile) and covered with a covering soil layer of about 1 cm. The pots were then cultivated in a greenhouse (12-16 h of light, temperature day 20-22° C., night 15-18° C.) until the time of application. The pots were treated at the BBCH stage 00-10 of the seeds/plants on a laboratory track sprayer with spray liquors comprising the compositions according to the invention, mixtures or components used individually, as WG, WP, EC or other formulations. The application rate for the spray application was 100-600 l of water/ha. After the treatment, the plants were returned to the greenhouses and, when required, treated with fertilizer and watered. • 2. Post-emergence action against weeds: seeds of various broad-leaved weed and weed grass biotypes (origins) were sown in a 8-13 cm diameter pot filled with natural soil of a standard field soil (loamy silt; non-sterile) and covered with a covering soil layer of about 1 cm. The pots were then cultivated in a greenhouse (12-16 h of light, temperature day 20-22° C., night 15-18° C.) until the time of application. The pots were treated at various BBCH stages between 11-25 of the seeds/plants, i.e. generally between two to three weeks after the start of the cultivation, on a laboratory track sprayer with spray liquors comprising the compositions according to the invention, mixtures or components used individually, as WG, WP, EC or other formulations. The application rate for the spray application was 100-600 l of water/ha. After the treatment, the plants were returned to the greenhouses and, when required, treated with fertilizer and watered. • 3. […]

In test [4] the test system is MATCH (Matricaria chamomilla). Description: PE action at different sowing depths, test method 9. As to conditions: PE application, g of AS/ha: (A) 90, (B) 1200, (C) 140, (A)+(B)+(C) 90 + 1200 + 140. Here is the method:
as §1, §2

The subject of test [5] is HORVS (Hordeum vulgare, summer barley). Description: PE crop compatibility at different soil pH values, test method 10. To be noted: PE application, g of AS/ha: (A) 90, (B) 1200, (C) 140, (A)+(B)+(C) 90 + 1200 + 140. Here is the method: as §1, §3
The subject of the next test is LOLPE (Lolium perenne). Description: Pre-sowing application action against weeds (7 days prior to sowing), test method 5. As to conditions: application 7 days prior to sowing; g of AS/ha: (A) 90, (B) 1200, (C) 140, (A)+(B)+(C) 90 + 1200 + 140. The procedure: as §1, §3
(§4) (notes: the term “seeds” also includes vegetative propagation forms such as, for example, rhizome pieces; abbreviations used: h light=hours of illumination, g of AS/ha=gram of active substance per hectare, l/ha=liter per hectare, S=sensitive, R=resistant) • 1. Pre-emergence action against weeds: seeds of various broad-leaved weed and weed grass biotypes (origins) were sown in a 8-13 cm diameter pot filled with natural soil of a standard field soil (loamy silt; non-sterile) and covered with a covering soil layer of about 1 cm. The pots were then cultivated in a greenhouse (12-16 h of light, temperature day 20-22° C., night 15-18° C.) until the time of application. The pots were treated at the BBCH stage 00-10 of the seeds/plants on a laboratory track sprayer with spray liquors comprising the compositions according to the invention, mixtures or components used individually, as WG, WP, EC or other formulations. The application rate for the spray application was 100-600 l of water/ha. After the treatment, the plants were returned to the greenhouses and, when required, treated with fertilizer and watered. • 2. Post-emergence action against weeds: seeds of various broad-leaved weed and weed grass biotypes (origins) were sown in a 8-13 cm diameter pot filled with natural soil of a standard field soil (loamy silt; non-sterile) and covered with a covering soil layer of about 1 cm. The pots were then cultivated in a greenhouse (12-16 h of light, temperature day 20-22° C., night 15-18° C.) until the time of application. […]

Test [6] deals with AVEFA (Avena fatua). The test is described as above. As to conditions: application 7 days prior to sowing; g of AS/ha: (A) 90, (B) 1200, (C) 140, (A)+(B)+(C) 90 + 1200 + 140. Here is the method: as §1, §3, §4
The subject of a further test is STEME (Stellaria media). Description: Action under various soil conditions (soil types), test method 7. As to conditions: g of AS/ha: (A) 90, (B) 1200, (C) 140, (A)+(B)+(C) 90 + 1200 + 140. Here is the method: as §1, §3
(§5) (notes: the term “seeds” also includes vegetative propagation forms such as, for example, rhizome pieces; abbreviations used: h light=hours of illumination, g of AS/ha=gram of active substance per hectare, l/ha=liter per hectare, S=sensitive, R=resistant) • 1. Pre-emergence action against weeds: seeds of various broad-leaved weed and weed grass biotypes (origins) were sown in a 8-13 cm diameter pot filled with natural soil of a standard field soil (loamy silt; non-sterile) and covered with a covering soil layer of about 1 cm. The pots were then cultivated in a greenhouse (12-16 h of light, temperature day 20-22° C., night 15-18° C.) until the time of application. The pots were treated at the BBCH stage 00-10 of the seeds/plants on a laboratory track sprayer with spray liquors comprising the compositions according to the invention, mixtures or components used individually, as WG, WP, EC or other formulations. The application rate for the spray application was 100-600 l of water/ha. After the treatment, the plants were returned to the greenhouses and, when required, treated with fertilizer and watered. • 2. Post-emergence action against weeds: seeds of various broad-leaved weed and weed grass biotypes (origins) were sown in a 8-13 cm diameter pot filled with natural soil of a standard field soil (loamy silt; non-sterile) and covered with a covering soil layer of about 1 cm. The pots were then cultivated in a greenhouse (12-16 h of light, temperature day 20-22° C., night 15-18° C.) until the time of application. The pots were treated at various BBCH stages between 11-25 of the seeds/plants, i.e. generally between two to three weeks after the start of the cultivation, on a laboratory track sprayer with spray liquors comprising the compositions according to the invention, mixtures or components used individually, as WG, WP, EC or other formulations. The application rate for the spray application was 100-600 l of water/ha. After the treatment, the plants were returned to the greenhouses and, when required, treated with fertilizer and watered. • 3. Selective pre-emergence action: seeds of various crop species (origins) were sown in a 8-13 cm diameter pot filled with natural soil of a standard field soil (loamy silt; non-sterile) and covered with a covering soil layer of about 1 cm. The pots were then cultivated in a greenhouse (12-16 h of light, temperature day 20-22° C., night 15-18° C.) until the time of application. The pots were treated at the BBCH stage 00-10 of the seeds/plants on a laboratory track sprayer with spray liquors comprising the compositions according to the invention, mixtures or components used individually, as WG, WP, EC or other formulations. The application rate for the spray application was 100-600 l of water/ha. […]

The subject of test [7] is MATCH (Matricaria chamomilla). The description is as above. To be noted: g of AS/ha: (A) 90, (B) 1200, (C) 140, (A)+(B)+(C) 90 + 1200 + 140. The procedure:
as §1, §3, §5

The test system of test [8] is HORVS (Hordeum vulgare, summer barley). The experiment in a line: Selective post-emergence action (crop compatibility), greenhouse trial, test method 4. To be noted: PO application; g of AS/ha: (A) 240, (B) 1200, (C) 140, (A)+(B)+(C) 240 + 1200 + 140. The procedure: as §1, §3
(notes: the term “seeds” also includes vegetative propagation forms such as, for example, rhizome pieces; abbreviations used: h light=hours of illumination, g of AS/ha=gram of active substance per hectare, l/ha=liter per hectare, S=sensitive, R=resistant) • 1. Pre-emergence action against weeds: seeds of various broad-leaved weed and weed grass biotypes (origins) were sown in a 8-13 cm diameter pot filled with natural soil of a standard field soil (loamy silt; non-sterile) and covered with a covering soil layer of about 1 cm. The pots were then cultivated in a greenhouse (12-16 h of light, temperature day 20-22° C., night 15-18° C.) until the time of application. […]

`CCC(CC)Nc1c([N+](=O)[O-])cc(C)c(C)c1[N+](=O)[O-]` [(B) pendimethalin, N-(1-ethylpropyl)-3,4-dimethyl-2,6-dinitrobenzenamine]: the “activity HORVS (crop plant)” value in test [1] was 50%. In addition, the “activity AVEFA pH 7.4” value in the test on AVEFA (Avena fatua) [2] (soil pH 7.4) stood at 10%. For the same molecule, the “activity AVEFA pH 8.4” value in the test on AVEFA (Avena fatua) [2] (soil pH 8.4) was determined as 30%. Moreover, the “activity HORVS IU soil (crop plant)” value in [3] (IU soil) was determined as 0%. Besides, in test [3] (IU/EC73 soil), the “activity HORVS IU/EC73 soil (crop plant)” value is recorded as 0%. Further, in test [4] (sowing depth 5 mm), the “activity MATCH 5 mm” value is listed as 0%. In test [4] (sowing depth 20 mm), the “activity MATCH 20 mm” value is reported as 30%. Moreover, the “activity HORVS pH 7.4 (crop plant)” value in test [5] (soil pH 7.4) came out at 0%. Also, in [5] (soil pH 8.4), the “activity HORVS pH 8.4 (crop plant)” value is 15%. Further, in the test with LOLPE (Lolium perenne), the “activity LOLPE” value is listed as 0%. Besides, the “activity AVEFA” value in the test on AVEFA (Avena fatua) [6] is listed as 70%. Further, the “activity STEME IU soil” value with STEME (Stellaria media) (IU soil) amounted to 85%. The “activity STEME IU/EC73 soil” value with STEME (Stellaria media) (IU/EC73 soil) worked out at 55%. Besides, the “activity MATCH IU soil” value in [7] (IU soil) came to 10%. Further, the “activity MATCH IU/EC73 soil” value in [7] (IU/EC73 soil) was found to be 0%. Besides, in [8], the “activity HORVS (crop plant; visual, scale 0-100%)” value stood at 10%.
